From PubChem BioAssay AID624008 (Vanderbilt Specialized Chemistry Center, 2012) come the findings set out here.

The structures appear in SMILES notation. Calls of active or inactive are those of the source. How the calls were made is not given here.

The remaining activity is the signal under treatment as a percentage of the control signal.

Chain of Phospholipase D1 (Homo sapiens) + Phospholipase D1 (Homo sapiens) (Q13393 whole entry, looked up): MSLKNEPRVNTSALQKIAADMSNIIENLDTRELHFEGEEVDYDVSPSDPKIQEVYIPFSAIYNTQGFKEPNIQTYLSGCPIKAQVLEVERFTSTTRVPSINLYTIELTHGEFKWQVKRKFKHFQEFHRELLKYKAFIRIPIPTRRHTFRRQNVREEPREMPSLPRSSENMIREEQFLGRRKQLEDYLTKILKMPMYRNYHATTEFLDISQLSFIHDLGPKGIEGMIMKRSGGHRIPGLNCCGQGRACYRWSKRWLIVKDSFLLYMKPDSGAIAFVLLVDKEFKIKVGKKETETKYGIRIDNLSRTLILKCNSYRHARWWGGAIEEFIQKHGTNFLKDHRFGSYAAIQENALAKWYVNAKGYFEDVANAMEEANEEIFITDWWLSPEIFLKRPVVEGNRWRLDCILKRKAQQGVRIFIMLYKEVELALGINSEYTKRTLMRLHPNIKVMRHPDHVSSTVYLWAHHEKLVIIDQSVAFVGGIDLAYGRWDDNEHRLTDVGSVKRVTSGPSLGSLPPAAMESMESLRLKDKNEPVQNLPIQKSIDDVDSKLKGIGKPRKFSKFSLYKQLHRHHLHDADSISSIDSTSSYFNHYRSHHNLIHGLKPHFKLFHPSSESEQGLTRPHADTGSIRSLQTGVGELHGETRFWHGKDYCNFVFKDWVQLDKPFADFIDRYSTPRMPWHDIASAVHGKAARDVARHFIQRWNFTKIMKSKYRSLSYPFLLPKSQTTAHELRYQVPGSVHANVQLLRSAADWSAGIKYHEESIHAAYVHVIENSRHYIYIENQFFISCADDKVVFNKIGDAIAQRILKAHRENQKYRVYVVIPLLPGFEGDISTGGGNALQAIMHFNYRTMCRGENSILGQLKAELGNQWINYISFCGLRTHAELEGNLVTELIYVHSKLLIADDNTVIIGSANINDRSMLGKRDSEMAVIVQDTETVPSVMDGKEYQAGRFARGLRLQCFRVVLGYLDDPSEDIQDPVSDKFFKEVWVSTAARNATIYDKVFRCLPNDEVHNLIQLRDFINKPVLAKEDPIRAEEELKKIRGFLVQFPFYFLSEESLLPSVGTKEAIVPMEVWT
Chain of Phospholipase D1 (Homo sapiens) + Phospholipase D1 (Homo sapiens) (Q13393 whole entry, looked up): as above

This assay concerns the target Phospholipase D1 (Homo sapiens) + Phospholipase D1 (Homo sapiens) (UniProt Q13393+Q13393). The experiment in a line: phospholipase D1 activity inhibition in cells – Calu-1 cells, Lib32, assay 1A (AID 624008). Conditions: PLD1 cellular activity, percent of control, active compounds read low, concentration not given here.
As to `COc1cc(C(=O)N[C@@H](C)CN2CCC3(CC2)C(=O)NCN3c2cccc(F)c2)cc(OC)c1OC`, the remaining activity is 9.86%. Consider `O=C(NCCN1CCC2(CC1)C(=O)NCN2c1cccc(F)c1)c1ccc(F)cc1`, for which the remaining activity is 102% (inactive).

Consider `O=C(NCCN1CCC2(CC1)C(=O)NCN2c1cccc(F)c1)c1cccc([N+](=O)[O-])c1`, for which the remaining activity was 101% (inactive). For `O=C(NCCN1CCC2(CC1)C(=O)NCN2c1cccc(F)c1)c1ccc(Br)cc1`, the remaining activity was 98.5% (inactive). With `O=C(c1ccc(F)cc1)N(CCN1CCC2(CC1)C(=O)NCN2c1cccc(F)c1)C(=O)c1ccc(F)cc1` the figure was 109% (inactive). Regarding `O=C(NCCN1CCC2(CC1)C(=O)NCN2c1cccc(F)c1)c1ccc(Cl)cc1Cl`, the remaining activity is 107% (inactive).

In the case of `O=C(NCCN1CCC2(CC1)C(=O)NCN2c1cccc(F)c1)c1ccc(F)cc1F`, the remaining activity was 99% (inactive). In the case of `O=C(NCCN1CCC2(CC1)C(=O)NCN2c1cccc(F)c1)c1ccccc1I` it was 99.7% (inactive). In the case of `C[C@@H](CN1CCC2(CC1)C(=O)NCN2c1cccc(F)c1)NC(=O)c1ccc(Cl)cc1Cl` it was 71.6%; in that of `O=C(NCCN1CCC2(CC1)C(=O)NCN2c1cccc(F)c1)c1c(F)ccc(F)c1Cl`, 106% (inactive); in that of `C[C@@H](CN1CCC2(CC1)C(=O)NCN2c1cccc(F)c1)NC(=O)c1cccc(C(F)(F)F)c1`, 82.3% (inactive).

In the case of `O=C(Cc1ccc(F)cc1)NCCN1CCC2(CC1)C(=O)NCN2c1cccc(F)c1`, the remaining activity was 99.3% (inactive). In the case of `C[C@@H](CN1CCC2(CC1)C(=O)NCN2c1cccc(F)c1)NC(=O)c1cccc(F)c1`, the remaining activity was 45.7%.

With `C[C@@H](CN1CCC2(CC1)C(=O)NCN2c1cccc(F)c1)NC(=O)c1cccc2ccccc12`, the remaining activity is 64.5%. Regarding `C[C@@H](CN1CCC2(CC1)C(=O)NCN2c1cccc(F)c1)NC(=O)c1ccc(F)cc1`, the remaining activity is 24%. With `O=C(NCCN1CCC2(CC1)C(=O)NCN2c1cccc(F)c1)c1cccc(C(F)(F)F)c1`, the remaining activity was 94.8% (inactive). With `C[C@@H](CN1CCC2(CC1)C(=O)NCN2c1cccc(F)c1)NC(=O)c1ccc(F)cc1F` the figure was 28.8%. With `C[C@@H](CN1CCC2(CC1)C(=O)NCN2c1cccc(F)c1)NC(=O)c1c(F)cccc1F` the figure was 75.1%; with `C[C@@H](CN1CCC2(CC1)C(=O)NCN2c1cccc(F)c1)NC(=O)c1ccccc1I`, 91.6% (inactive); with `C[C@@H](CN1CCC2(CC1)C(=O)NCN2c1cccc(F)c1)NC(=O)c1cccc([N+](=O)[O-])c1`, 28.6%.

As to `O=C(NCCN1CCC2(CC1)C(=O)NCN2c1cccc(F)c1)c1cccc2ccccc12`, the remaining activity is 102% (inactive). For the molecule `C[C@@H](CN1CCC2(CC1)C(=O)NCN2c1cccc(F)c1)NC(=O)Cc1ccc(F)cc1`, the remaining activity was 102% (inactive).

For `C[C@@H](CN1CCC2(CC1)C(=O)NCN2c1cccc(F)c1)NC(=O)c1ccc(Br)cc1`, the remaining activity was 10.2%. `COc1cc(C(=O)NCCN2CCC3(CC2)C(=O)NCN3c2cccc(F)c2)cc(OC)c1OC`: the remaining activity was 113% (inactive). With `C[C@@H](CN1CCC2(CC1)C(=O)NCN2c1cccc(F)c1)NC(=O)c1ccc(F)c(F)c1` the figure was 10.1%. In the case of `O=C(NCCN1CCC2(CC1)C(=O)NCN2c1cccc(F)c1)c1ccccn1` it was 93.5% (inactive). In the case of `C[C@@H](CN1CCC2(CC1)C(=O)NCN2c1cccc(F)c1)NC(=O)c1c(F)ccc(F)c1Cl` it was 81.7% (inactive); in that of `O=C(NCCN1CCC2(CC1)C(=O)NCN2c1cccc(F)c1)c1cccc2c1OCO2`, 102% (inactive).
